According to US7368477B2, “Benzofuranyl alkanamine derivatives and uses thereof” (Wyeth, priority 2005, dated 2008):
Where two headings read alike, the source gives them in different places.

Tests used:
[1] = molecular target: T1, human 5-HT2C receptor (Homo sapiens, UniProt P28335); experiment: Calcium mobilization (FLIPR) in CHO cells stably expressing the human 5-HT2C receptor; type: cell-based; details: for Emax: CHO, read-out: 5-HT2C Function EMax (%); for EC50: calcium mobilization, h5-HT2C CHO cells, read-out: 5-HT2C Function EC50
T1 sequence (P28335 33-458): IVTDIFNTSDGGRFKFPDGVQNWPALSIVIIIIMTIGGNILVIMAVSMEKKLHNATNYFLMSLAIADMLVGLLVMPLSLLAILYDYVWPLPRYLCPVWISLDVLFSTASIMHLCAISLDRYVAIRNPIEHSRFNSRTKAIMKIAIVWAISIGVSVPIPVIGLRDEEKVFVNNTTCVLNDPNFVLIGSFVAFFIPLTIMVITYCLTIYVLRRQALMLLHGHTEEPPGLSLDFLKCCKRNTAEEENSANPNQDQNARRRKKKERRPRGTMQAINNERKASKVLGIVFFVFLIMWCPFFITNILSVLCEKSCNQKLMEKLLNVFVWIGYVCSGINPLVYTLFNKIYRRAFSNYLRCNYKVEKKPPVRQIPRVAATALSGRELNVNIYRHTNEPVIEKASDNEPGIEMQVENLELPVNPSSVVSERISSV

[2] = molecular target: T2, human 5-hydroxytryptamine-2C (h5-HT2C) receptor (Homo sapiens, UniProt P28335); experiment: [125I]DOI binding to membranes of CHO cells expressing the human 5-HT2C receptor
T2 construct: expressed in transfected cells; host or cells: CHO (Chinese Hamster Ovary) cells; membrane preparation
T2 sequence (P28335 33-458): T1 sequence (P28335 33-458)

[3] = read-out: 5-HT2C Binding Ki avg

Structure (SMILES) | Emax [1] | EC50 [1] | melting point | Ki [2, 3] | Ki ([2]; reference compounds, [125I]DOI displacement, h5-HT2C CHO membranes, read-out: Ki (95% confidence interval)) | Kd ([2]; saturation binding with increasing concentrations of [125I]DOI, read-out: dissociation constant, KD)
I.NCc1cc2cc(Cl)cc(-c3ccccc3)c2o1 [Compound 1, [(5-chloro-7-phenyl-1-benzofuran-2-yl)methyl]amine] | 70% | 200 to 2000 nM | > 225 °C | 10 to 100 nM | – | –
NCc1cc2cc(Cl)cc(-c3ccccc3F)c2o1 [Compound 2, {[5-chloro-7-(2-fluorophenyl)-1-benzofuran-2-yl]methyl}amine] | 80% | 200 to 2000 nM | – | 1 to 10 nM | – | –
NCc1cc2cc(Cl)cc(-c3ccccc3Cl)c2o1 [Compound 3, {[5-chloro-7-(2-chlorophenyl)-1-benzofuran-2-yl]methyl}amine] | 100% | < 10 nM | – | – | – | –
Cc1ccccc1-c1cc(Cl)cc2cc(CN)oc12 [Compound 4, {[5-chloro-7-(2-methylphenyl)-1-benzofuran-2-yl]methyl}amine] | 90% | 10 to 200 nM | – | – | – | –
COc1ccccc1-c1cc(Cl)cc2cc(CN)oc12 [Compound 5, {[5-chloro-7-(2-methoxyphenyl)-1-benzofuran-2-yl]methyl}amine] | 90% | 10 to 200 nM | – | 1 to 10 nM | – | –
NCc1cc2cc(Cl)cc(-c3ccccc3C(F)(F)F)c2o1 [Compound 6, ({5-chloro-7-[2-(trifluoro methyl)phenyl]-1-benzofuran-2-yl}methyl)amine] | 90% | 200 to 2000 nM | 215 to 218 °C (dec.) | 10 to 100 nM | – | –
NCc1cc2cc(F)cc(-c3c(Cl)cccc3Cl)c2o1 [Compound 7, {[7-(2,6-dichlorophenyl)-5-fluoro-1-benzofuran-2-yl]methyl}amine] | 100% | < 10 nM | – | 0.01 to 1 nM | – | –
Cc1ccccc1-c1cc(F)cc2cc(CN)oc12 [Compound 8, {[5-fluoro-7-(2-methylphenyl)-1-benzofuran-2-yl]methyl}amine] | 90% | < 10 nM | – | 1 to 10 nM | – | –
NCc1cc2cc(F)cc(-c3ccc(Cl)cc3Cl)c2o1 [Compound 9, {[7-(2,4-dichlorophenyl)-5-fluoro-1-benzofuran-2-yl]methyl}amine] | 90% | < 10 nM | – | 0.01 to 1 nM | – | –
COc1ccccc1-c1cc(F)cc2cc(CN)oc12 [Compound 10, 1-[5-fluoro-7-(2-methoxyphenyl)-1-benzofuran-2-yl]methanamine] | 80% | 10 to 200 nM | 128 to 130 °C | 1 to 10 nM | – | –
NCc1cc2cc(F)cc(-c3cc(Cl)ccc3Cl)c2o1 [Compound 11, 1-[7-(2,5-dichlorophenyl)-5-fluoro-1-benzofuran-2-yl]methanamine] | 70% | < 10 nM | 245 to 247 °C | 0.01 to 1 nM | – | –
Cc1ccccc1-c1cccc2cc(CN)oc12 [Compound 12, 1-[7-(2-methylphenyl)-1-benzofuran-2-yl]methanamine] | 70% | < 10 nM | 222 to 224 °C | 1 to 10 nM | – | –
Cc1cc(Cl)ccc1-c1cc(F)cc2cc(CN)oc12 [Compound 13, 1-[7-(4-chloro-2-methylphenyl)-5-fluoro-1-benzofuran-2-yl]methanamine] | 80% | 10 to 200 nM | 172 to 174 °C | 1 to 10 nM | – | –
Cc1ccc(Cl)cc1-c1cc(F)cc2cc(CN)oc12 [Compound 14, 1-[7-(5-chloro-2-methylphenyl)-5-fluoro-1-benzofuran-2-yl]methanamine] | 80% | 10 to 200 nM | 208 to 210 °C | 1 to 10 nM | – | –
NCc1cc2cccc(-c3c(Cl)cccc3Cl)c2o1 [Compound 15, 1-[7-(2,6-dichlorophenyl)-1-benzofuran-2-yl]methanamine] | 90% | < 10 nM | 260 to 262 °C | 0.01 to 1 nM | – | –
NCc1cc2ccc(Cl)c(-c3ccccc3Cl)c2o1 [Compound 16, 1-[6-chloro-7-(2-chlorophenyl)-1-benzofuran-2-yl]methanamine] | 90% | < 10 nM | 208 to 210 °C | 0.01 to 1 nM | – | –
NCc1cc2ccc(F)c(-c3ccccc3Cl)c2o1 [Compound 17, 1-[7-(2-chlorophenyl)-6-fluoro-1-benzofuran-2-yl]methanamine] | – | – | > 250 °C | – | – | –
CSc1ccc2c(c1)C(N1CCN(C)CC1)Cc1ccccc1S2 (stereo not shown) [Methiothepin, reference compound] | – | – | – | – | 4.6 nM | –
COc1cc(CC(C)N)c(OC)cc1I (stereo not shown) [[^125I] DOI, reference compound] | – | – | – | – | – | 0.4 nM
